Measured values from ChEMBL document CHEMBL1201862, “PubChem BioAssay data set” (2004).
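Grown in 96-well plates, cells were treated for 48 hours with each compound at five concentrations. Insufficient inhibition: endpoint recorded as highest concentration tested. At the GI50, growth is halved.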 Active and inactive are the calls of the source. No stated cut-off is given here; in the data, active = GI50 up to about 1.1 µM and inactive = higher.

Assays:
Experiment in all cases: DTP human tumour cell line panel, 48 h
SK-MEL-28 = system: SK-MEL-28
A498 = system: A498
SF-268 = system: SF-268
SK-OV-3 = system: SK-OV-3
ACHN = system: ACHN
PC-3 = system: PC-3
NCI/ADR-RES = system: NCI/ADR-RES
SNB-75 = system: SNB-75
COLO 205 = system: COLO 205
NCI-H460 = system: NCI-H460
UACC-257 = system: UACC-257
MOLT-4 = system: MOLT-4
M14 = system: M14
A549 = system: A549
TK-10 = system: TK-10
HOP-62 = system: HOP-62
DU-145 = system: DU-145
OVCAR-8 = system: OVCAR-8
MDA-MB-435 = system: MDA-MB-435
LOX IMVI = system: LOX IMVI

Measured: GI50

N#CCCN(CCC#N)c1ccc(C(=N/c2ccc(Cl)cc2)/N=N/c2ccccc2)cc1
inactive: SK-MEL-28 > 100 µM | A498 > 100 µM | SF-268 > 100 µM | SK-OV-3 > 100 µM | ACHN > 100 µM | PC-3 > 100 µM | NCI/ADR-RES 36.3 µM | SNB-75 59.4 µM | COLO 205 48.8 µM | NCI-H460 55.1 µM | UACC-257 59.4 µM | MOLT-4 > 100 µM | M14 > 100 µM | A549 36.4 µM | TK-10 88.5 µM | HOP-62 > 100 µM | DU-145 88.5 µM | OVCAR-8 > 100 µM | MDA-MB-435 44.9 µM

O=S(=O)(c1ccccc1)n1c2ccc(Br)cc2c2nc3ccccc3nc21
inactive: SK-MEL-28 > 100 µM | A498 > 100 µM | SF-268 > 100 µM | ACHN > 100 µM | PC-3 > 100 µM | NCI/ADR-RES > 100 µM | SNB-75 > 100 µM | COLO 205 > 100 µM | NCI-H460 > 100 µM | UACC-257 > 100 µM | MOLT-4 > 100 µM | M14 > 100 µM | A549 > 100 µM | TK-10 > 100 µM | LOX IMVI > 100 µM | HOP-62 > 100 µM | DU-145 > 100 µM | OVCAR-8 > 100 µM | MDA-MB-435 > 100 µM

CC(C)[C@H]1NC(=O)[C@H]2N=C(S[C@H]2C)[C@@H]2CCCN2C(=O)[C@H](Cc2ccccc2)NC(=O)[C@@H]2CSC(=N2)[C@@H](Cc2ccccc2)NC(=O)[C@@H]2CSC1=N2
inactive: SK-MEL-28 14.1 µM | A498 19.2 µM | SF-268 45.6 µM | SK-OV-3 35.5 µM | ACHN 25.4 µM | PC-3 14.6 µM | NCI/ADR-RES 19.7 µM | COLO 205 16.1 µM | UACC-257 31.7 µM | MOLT-4 11.6 µM | M14 25.7 µM | A549 17.3 µM | TK-10 21.7 µM | LOX IMVI 29.7 µM | HOP-62 > 50 µM | DU-145 > 50 µM | OVCAR-8 33.6 µM | MDA-MB-435 13.7 µM

COc1ccc(N/N=C2\CCOc3ccc(C)cc3C2=O)cc1
inactive: SK-MEL-28 32.3 µM | A498 59.8 µM | SF-268 35.5 µM | SK-OV-3 18.2 µM | ACHN 12.4 µM | PC-3 10.6 µM | NCI/ADR-RES 9.4 µM | COLO 205 23.4 µM | NCI-H460 13.7 µM | UACC-257 14.9 µM | MOLT-4 11.1 µM | M14 26.9 µM | A549 21.3 µM | TK-10 55.6 µM | LOX IMVI 12.4 µM | HOP-62 39.2 µM | DU-145 51.3 µM | OVCAR-8 31.8 µM | MDA-MB-435 3.18 µM

CCOc1ccc(C(c2c(O)c3ccccc3oc2=O)c2c(O)c3ccccc3oc2=O)cc1
inactive: SK-MEL-28 80 µM | A498 36.1 µM | SF-268 44.5 µM | SK-OV-3 47.4 µM | ACHN 74.6 µM | PC-3 29.6 µM | NCI/ADR-RES 98.6 µM | COLO 205 > 100 µM | UACC-257 35.6 µM | MOLT-4 33.6 µM | M14 42.3 µM | A549 69.8 µM | TK-10 49.5 µM | LOX IMVI 66.5 µM | HOP-62 61.5 µM | DU-145 > 100 µM | OVCAR-8 43.9 µM | MDA-MB-435 70.3 µM

CN(C)Cc1cc(/N=N/c2ccccc2Cl)cc(CN(C)C)c1O
inactive: SK-MEL-28 18.5 µM | A498 33.7 µM | SF-268 73.8 µM | ACHN > 100 µM | PC-3 33.5 µM | NCI/ADR-RES 63.7 µM | SNB-75 56.4 µM | COLO 205 20.5 µM | NCI-H460 47.2 µM | UACC-257 20.1 µM | MOLT-4 20.5 µM | M14 29.4 µM | A549 77.4 µM | TK-10 > 100 µM | LOX IMVI 16.9 µM | HOP-62 6.67 µM | DU-145 > 100 µM | OVCAR-8 45.5 µM | MDA-MB-435 34.4 µM

CC(C)=CCC/C(C)=C/C=C/C(C)=C/C=C/C(C)=C/C=C/C=C(C)/C=C/C=C(C)/C=C/[C@H]1C(C(C)(C)O)CC[C@]1(C)O (stereo partly specified)
inactive: SK-MEL-28 20.5 µM | A498 27.1 µM | SF-268 19.5 µM | SK-OV-3 56.2 µM | ACHN 22 µM | PC-3 30.3 µM | NCI/ADR-RES 32.4 µM | NCI-H460 29.8 µM | UACC-257 21.8 µM | MOLT-4 20.7 µM | M14 28.8 µM | TK-10 37.3 µM | LOX IMVI 23.3 µM | HOP-62 20 µM | DU-145 16.9 µM | OVCAR-8 20.2 µM | MDA-MB-435 23 µM

C=C(CBr)CCCOCc1ccccc1
inactive: SK-MEL-28 40.9 µM | A498 35.2 µM | SF-268 15.8 µM | SK-OV-3 35.5 µM | ACHN 14.1 µM | PC-3 19.7 µM | NCI/ADR-RES 20.2 µM | COLO 205 27.6 µM | NCI-H460 18.1 µM | UACC-257 33.9 µM | MOLT-4 30.8 µM | M14 16.7 µM | A549 38.4 µM | TK-10 16.7 µM | LOX IMVI 30.6 µM | HOP-62 22.2 µM | DU-145 39.1 µM | OVCAR-8 17 µM | MDA-MB-435 28.4 µM

N#CC1=C(N2CCCC2)NC(=O)CC1=O
inactive: SK-MEL-28 > 100 µM | A498 > 100 µM | SF-268 > 100 µM | SK-OV-3 > 100 µM | ACHN > 100 µM | PC-3 > 100 µM | NCI/ADR-RES > 100 µM | COLO 205 > 100 µM | NCI-H460 > 100 µM | UACC-257 > 100 µM | MOLT-4 > 100 µM | M14 > 100 µM | A549 > 100 µM | TK-10 > 100 µM | LOX IMVI > 100 µM | HOP-62 > 100 µM | DU-145 > 100 µM | OVCAR-8 > 100 µM | MDA-MB-435 > 100 µM

O=C(/C=C/c1ccc(O)c(O)c1)OCCOC(=O)/C=C/c1ccc(O)c(O)c1
inactive: SK-MEL-28 36.4 µM | A498 39.5 µM | SF-268 27.7 µM | SK-OV-3 24.2 µM | ACHN 31.3 µM | PC-3 32 µM | NCI/ADR-RES 39.8 µM | COLO 205 19.5 µM | NCI-H460 37.2 µM | UACC-257 17.9 µM | MOLT-4 20.9 µM | M14 14.7 µM | A549 32.1 µM | TK-10 41.5 µM | LOX IMVI 28.6 µM | HOP-62 21.5 µM | DU-145 24.7 µM | OVCAR-8 32.2 µM | MDA-MB-435 31.3 µM
